Source: patent publication US20250163387A1, “HUMAN PITUITARY NEUROENDOCRINE TUMOR ORGANOIDS AND METHODS OF MAKING AND USING THE SAME” (ARIZONA BOARD OF REGENTS OF THE UNIVERSITY OF ARIZONA, A …, priority 2022, published 2025)

How the values were obtained:
iPSC^ctrl organoids [1] = assay: Proliferation by EdU uptake; assay type: cell-based, human; conditions: drug alone, 500 nM
Method: (§1) Organoids were immunostained using published protocols by our laboratory. Proliferation was measured by using 5-ethynyl-2'-deoxyuridine (EdU) incorporation according to the Manufacturer's protocol (Click-IT EdU Alexa Fluor 555 Imaging Kit, Thermo Fisher Scientific C10338). Costaining was performed by blocking fixed organoids with 2% donkey serum (Jackson Immuno Research, #017-000-121) diluted in 0.01% PBST for 1 hr. at room temperature. Organoids were then incubated overnight at 4° C. with primary antibodies followed by secondary antibodies and Hoechst (Thermo Fisher Scientific H1399, 1:1000 in 0.01% PBST) for 1 hr at room temperature. Human specific primary antibodies used included: rabbit anti-ACTH (Thermo Fisher Scientific 701293, 1:250), rabbit anti-Synaptophysin (Thermo Fisher Scientific PA5-27286, 1:100), […] (Thermo Fisher Scientific PA5-98650, 1:50), rabbit anti-LH (Thermo Fisher Scientific PA5-102674, 1:100), mouse anti-FSH (Thermo Fisher Scientific MIF2709, 1:100), mouse anti-PRL (Thermo Fisher Scientific CF500720, 1:100), Alexa Flour conjugated GH (NB500-364AF647, 1:100) and mouse anti-CAM5.2 (SIGMA […]-95, 1:250). The secondary antibodies used included Alexa Fluor 488 Donkey Anti Rabbit IgG (H+L) (Thermo Fisher Scientific A21206, 1:100) or Alexa Fluor 647 Donkey Anti Mouse IgG (H+L) (Thermo Fisher Scientific A31571, 1:100). Organoids were visualized and images acquired by confocal microscopy using the Nikon CrestV2 Spinning Disk. Fluorescence intensity and percentage of EdU positive cells of total cells, were calculated using Nikon Elements Software (Version 5.21.05).

iPSC^USP48MV organoids [2] = assay: Proliferation by EdU uptake; assay type: cell-based, human; conditions: drug alone, 500 nM
Method: as §1

FKBP5 = assay: GR modulation: GR target gene FKBP5 expression in PitNET organoids; assay type: cell-based, human
macroadenomas = conditions: patients with macroadenomas; relacorilant for three months; cited from earlier work
[3] = test system: pancreatic and ovarian cancer cell lines; conditions: cited from earlier work
iPSC^ctrl organoids [4] = assay: Nuclear irregularity index (NII) morphometric analysis; assay type: cell-based, human; conditions: 500 nM
Method: (§2) Nuclear Morphometric Analysis (NMA) using treated organoids was performed based on a published protocol that measures cell viability based on the changes in nuclear morphology of the cells using nuclear stain Hoechst or DAPI [30]. Images of organoid nuclei were analyzed using the ImageJ Nuclear Irregularity Index (NII) plugin for key parameters that included cell area, radius ratio, area box, aspect, and roundness. Using the published spreadsheet template, the NII of each cell was calculated with the following formula: NII=Aspect−Area Box+Radius Ratio+Roundness. The area vs NII of vehicle-treated cells were plotted as a scatter plot using the template and considered as the normal cell nuclei. The same plots were generated for each condition, and the NII and area of treated cells were compared to the normal nuclei, and classified as one of the following NMA populations: Normal (N; similar area and NII), Mitotic (S; similar area, slightly higher NII), Irregular (I; similar area, high NII), Small Regular (SR; apoptotic, low area and NII), Senescent (LR; high area, low NII), Small Irregular (SI; low area, high NII), or Large Irregular (LI; high area, high NII). […] The percentage of cells in each NII classification category were calculated and plotted as a histogram using GraphPad Prism.

iPSC^USP48MV organoids [5] = assay: as above; assay type: cell-based, human; conditions: 500 nM
Method: as §2

SSTR5 = assay: Differential expression of SSTR5 in iPSC generated pituitary tumor organoids; assay type: cell-based, human; conditions: iPSC organoids (ctrl, USP48MI, USP48MV, USP8); 500 nM; vs vehicle
SSTR2 = assay: Differential expression of SSTR2 in iPSC generated pituitary tumor organoids; assay type: cell-based, human; conditions: iPSC organoids (ctrl, USP48MI, USP48MV, USP8); 500 nM; vs vehicle
iPSC^USP48MV organoids [6] = assay: Spectral flow cytometry (SSTR2, SSTR5, ACTH, zombie); assay type: cell-based, human; conditions: Rela 500 nM, Mife 500 nM
Method: (§3) The multicolor flow cytometry panel was designed using the Cytek®Full Spectrum Viewer online tool to calculate the similarity index. The organoids were harvested in cold SFDM media and centrifuged at 400×g for 5 minutes. Supernatant was discarded and organoids were dissociated to single cells using Accutase® (Thermo Fisher Scientific 00-4555-56). The enzymatic reaction was stopped using prewarmed DPBS and cells were then centrifuged at 400×g for 5 minutes and incubated with fluorochrome-conjugated/unconjugated primary surface or cytoplasmic antibodies at 4° C. for 30 minutes. Cells were then washed with Cell Staining Buffer (BioLegend #420-201) and incubated with secondary antibodies at 4° C. for 30 minutes. Cells were fixed using Cytofix/Cytoperm™ Fixation/Permeabilization Solution (BD Biosciences #554714) at 4° C. for 20 minutes, followed by washing with Fixation/Permeabilization wash buffer. Cells were then labeled with fluorochrome-conjugated/unconjugated intracellular primary antibodies at 4° C. for 30 minutes, washed and incubated with secondary antibodies at 4° C. for 30 minutes. Cells resuspended in cell staining buffer and fluorescence measured using the Cytek Aurora 5 Laser Spectral Flow Cytometer. An unstained cell sample was fixed and used as reference control. UltraComp eBeads™, Compensation Beads (Thermo Fisher Scientific #01-2222-42) were stained with the individual antibodies and used as single stain control for compensation and gating. Data was acquired using the Cytek™ Aurora and analyzed using Cytobank software (Beckman Coulter, Indianapolis, IN).

hPITO37 = assay: as above; assay type: cell-based, human; conditions: Rela 382 nM, Mife 2.85 nM
Method: as §3

## Cn1cc(S(=O)(=O)N2CCC3=Cc4c(cnn4-c4ccc(F)cc4)C[C@]3(C(=O)c3cc(C(F)(F)F)ccn3)C2)cn1 [relacorilant]
iPSC^ctrl organoids [1]
  cell proliferation (EdU uptake): did not induce organoid proliferation
iPSC^USP48MV organoids [2]
  cell proliferation (EdU uptake): did not induce organoid proliferation
FKBP5
  differential expression of FKBP5: significantly reduced
macroadenomas
  tumor (macroadenoma) regression: tumor regression in two patients
[3]
  apoptosis in vitro: induces apoptosis
iPSC^ctrl organoids [4]
  apoptotic cells by nuclear morphology (NII): not observed
iPSC^USP48MV organoids [5]
  apoptotic cells by nuclear morphology (NII): increased apoptotic cells
SSTR5
  expression of SSTR5: significant induction
SSTR2
  expression of SSTR2: significant induction
iPSC^USP48MV organoids [6]; Pas 100 nM
  ACTH positive cells: did not significantly increase
  cell death (Zombie positive cells): significant increase
iPSC^USP48MV organoids [6]; vs Veh
  percentage of SSTR2 positive cells: significant increase
  percentage of SSTR5 positive cells: significant increase
hPITO37; Pas 837.5 nM
  cell death (Zombie positive cells): significant increase
hPITO37; vs Veh
  percentage of SSTR2 positive cells: significant increase
  percentage of SSTR5 positive cells: significant increase
